{
  "source": "patent US8026211B2",
  "about": "“Methods and formulations for increasing intestinal function” (Technion Research & Development Foundation Ltd., priority 2004, dated 2011)",
  "key": {"[1]": {"system": "infants with SBS", "test": "Oral insulin supplementation in infants with SBS (clinical evaluation)", "type": "in vivo, human", "from_the_text": "1. Infants with less than 30 cm of small intestine (with ileo-cecal valve intact).\n2. Infants with less than 40 cm without ileo-cecal valve.\n3. Infants and children younger than 10 years of age, with SBS who are […] nutrition dependent and are not expected to be weaned of […] nutrition\nExclusion criteria: Infants in an unstable condition such as sepsis, acute gastroenteritis, pneumonia.\nDosage: 1 unit of insulin (Actrapid, Novonordisk, Denmark)/kg body weight per dose×4/day (every 6 hours) was administered for 28 days. Insulin was administered every six hours. Insulin will be provided as 1 u/ml of 0.45 NaCl orally.\nGlucose monitoring: Following the first insulin dose, blood glucose levels were measured, immediately prior to the first and second meal following the first dose of insulin. Measurements were repeated for the first three days following supplementation and then weekly (days 7, 14, 21 and 28)\nThe clinical evaluation of the patients' conditions included the following parameters:\n1. Weight, length, head circumference, MAC (mid arm circumference), TSF (triceps skin fold)—weekly\n3. […] intake of calories, carbohydrates, lipids\n4. Blood concentration levels of glucose, albumin, ALT, AST, GGT, ALP, total cholesterol, triglycerides (fasting), HDL-cholesterol, insulin (fasting, before insulin administration)\n5. Blood amino acid levels\n6. Insulin antibodies. 1 ml of serum was removed prior to treatment and at day 28 following treatment. The samples were frozen at −70° C. and sent, on dry ice, to Division of Pediatric Gastroenterology and Nutrition, Meyer Children's Hospital of Haifa, Bat-Galim 31096, Haifa for analysis."}, "[2]": {"system": "rat model of short bowel syndrome", "test": "Rat model of SBS: body weight and intestinal adaptation parameters (bowel circumference, bowel and mucosal weight, mucosal DNA and protein)", "type": "in vivo", "experimental": "Animal treatment: Animals were obtained from the Rappaport Faculty of Medicine (Technion, Haifa, Israel). Male rats weighing 240-260 g were kept in individual stainless steel cages at constant temperature and humidity, and a 12-hour light-dark cycle was maintained. Rats were fasted 12 hours prior to the experiment with free access to water. Animals underwent one of two surgical procedures: bowel transection and re-anastomosis or 75% bowel resection and anastomosis. General anesthesia was induced with Pentobarbital (IP 40 mg/kg). Using sterile techniques, the abdomen was opened using a midline incision. In sham rats, simple bowel transection and end-to-end re-anastomosis was performed 15 cm proximal to ileo-cecal junction. In SBS animals, small bowel was resected from a point 5 cm distal to the ligament of Treitz to a point 10 cm proximal to the ileo-cecal junction. Bowel continuity was restored by end-to-end anastomosis using 5-0 Vicryl interrupted sutures. For all operations, the abdominal cavity was closed in two layers with a running suture of 3-0 Dexon. Prior to closure of the abdomen, the rats were resuscitated with a 3 ml intraperitoneal injection of warm normal saline. Rats were fasted for 24 hours but were allowed free access to water.\nExperimental design: Forty rats were randomly assigned to one of three groups:\nGroup A—sham-rats underwent bowel transection (sham, n=14) and than fed with regular chow diet.\nGroup B—SBS-animals underwent bowel resection (SBS, n=13) and than fed regular chow diet.\nGroup C—SBS-Insulin (SBS-INS, n=13) rats underwent bowel resection and were fed regular chow diet and water containing insulin (ACTRAPID insulin, NOVO NORDISK, Denmark) at concentration of 1 u/ml. Food and fluid intake of animals were monitored as well as weight for a period of 14 days following treatment after which the animals were sacrificed following intraperitoneal injection of pentobarbital (75 mg/kg).\nIntestinal adaptation parameters: The small bowel was rapidly removed, rinsed with cold isotonic saline and divided into two segments: jejunum proximal to anastomosis and terminal ileum. Each segment was weighed, cut longitudinally, bowel circumference was measured in three equidistant points as described by Dowling [Dowling R H, Booth C C, 1967, Clin Sci; 32: 139-149] and the mean circumference was calculated. Mucosa was scraped using a glass slide, collected and weighed. Bowel and mucosal weight was calculated per cm of bowel length per 100 g of body weight as described previously [Sukhotnik I, et al., 2002, J Surg Res., December; 108(2):235-42]. Although bowel length may change due to spasm or bowel distension, the calculation per unit of bowel length is considered to be the gold standard in describing structural changes in intestine. DNA and protein were extracted using TRIzol reagent (Rhenium LTD, Jerusalem). The DNA concentrations were recorded in a spectrophotometer and calculated per cm of bowel length. Final protein concentration was measured spectrophotometrically using a commercially available kit (Bio-Rad, Protein Assay) and was calculated per cm of bowel length.\nStatistical analysis: The data are expressed as the mean±SEM. A paired Student's t-test and the non-parametric Kruskal-Wallis ANOVA test were used as indicted. p<0.05 was considered statistically significant."}, "[3]": {"conditions": "infant with SBS, oral insulin started, within a few days after initiation"}, "[4]": {"conditions": "SBS rats, oral insulin 1 u/ml in water, 14 days, vs SBS-untreated, p<0.05"}, "[5]": {"conditions": "SBS rats, oral insulin supplementation (summary)"}, "[6]": {"conditions": "SBS rats, oral insulin, vs SBS-untreated"}},
  "data": [
    {"substance": "insulin", "values": [
      {"measurement": "stool output", "setting": "[1]; human infants with SBS, oral insulin 1 unit/kg per dose x4/day", "value": "reduced stool output"},
      {"measurement": "jaundice", "setting": "[1]; [3]", "value": "decrease in jaundice"},
      {"measurement": "need for parenteral nutrition", "setting": "[1]; [3]", "value": "reduced need for parenteral nutrition"},
      {"measurement": "oral feeds", "setting": "[1]; [3]", "value": "increase in oral feeds"},
      {"measurement": "clinical outcome", "setting": "[1]; infant with SBS, three months following the addition of insulin", "value": "discharged from hospital, thriving and on full oral feeds"},
      {"measurement": "parenteral nutrition status", "setting": "[1]; infant with SBS, two months following the addition of oral insulin", "value": "parenteral nutrition was stopped"},
      {"measurement": "additional increase in ileal overall bowel weight", "setting": "[2]; [4]", "value": 40, "unit": "%"},
      {"measurement": "additional increase in jejunal mucosal weight", "setting": "[2]; [4]", "value": 33, "unit": "%"},
      {"measurement": "additional increase in jejunal overall bowel weight", "setting": "[2]; [4]", "value": 18, "unit": "%"},
      {"measurement": "increase in ileal mucosal DNA content", "setting": "[2]; [4]", "value": "almost two-fold increase"},
      {"measurement": "increase in ileal mucosal protein content", "setting": "[2]; [4]", "value": "two-fold increase"},
      {"measurement": "increase in ileal mucosal weight", "setting": "[2]; [4]", "value": "almost two fold increase"},
      {"measurement": "increase in mucosal weight in the remaining segments", "setting": "[2]; [5]", "value": "30-200%"},
      {"measurement": "increase in overall bowel weight in the remaining segments", "setting": "[2]; [5]", "value": "20-50%"},
      {"measurement": "increase in bowel diameter", "setting": "[2]; SBS rats, oral insulin supplementation, remaining segments (summary)", "value": "approximately 10%"},
      {"measurement": "mucosal DNA in jejunum", "setting": "[2]; [6]", "value": "not associated with an increase"},
      {"measurement": "mucosal protein in jejunum", "setting": "[2]; [6]", "value": "not associated with an increase"},
      {"measurement": "body weight gain", "setting": "[2]; SBS-INS rats (insulin 1 u/ml in water) vs SBS-nontreated, day 7 through 14, p<0.05", "value": "gained weight at greater rate"},
      {"measurement": "jejunal and ileal bowel circumference", "setting": "[2]; SBS-insulin rats vs SBS-untreated, 14 days, insulin 1 u/ml in water", "value": "additional increase"}
    ]}
  ]
}
